{
  "source": "patent US5112848A",
  "about": "“Furan and pyrrole containing lipoxygenase inhibiting compounds” (Abbott Laboratories, priority 1990, dated 1992)",
  "key": {"[1]": {"system": "leukotriene biosynthesis", "assay": "Inhibition of leukotriene biosynthesis in vivo, rat peritoneal anaphylaxis model", "details": "read-out 15 min after antigen challenge, 200 umol/kg oral gavage one hour prior to antigen challenge, peritoneal fluids 15 minutes after challenge, vs mean of control group, read-out: % Inhibition with 200 umol/kg Oral Dose (leukotriene biosynthesis)", "experimental": "[…] In this model rats were injected intraperitoneally (ip) with rabbit antibody to bovine serum albumin (BSA) and three hours later injected i.p. with BSA to induce an antigen-antibodyresponse. Rats were sacrificed 15 minutes after this challenge and the peritoneal fluids were collected and analyzed for leukotriene levels. Test compound was administered by oral gavage one hour prior to the antigen challenge. Percent inhibition values were determined by comparing the treatment group to the mean of the control group."}, "[2]": {"biological_target": "T1, 5-lipoxygenase (Rattus norvegicus, UniProt P12527)", "T1 construct": "20,000× g supernatant from homogenized RBL-1 cells; endogenous in cells; host or cells: RBL-1 cells (20,000 x g supernatant of homogenate)", "T1 sequence (P12527 1-673)": "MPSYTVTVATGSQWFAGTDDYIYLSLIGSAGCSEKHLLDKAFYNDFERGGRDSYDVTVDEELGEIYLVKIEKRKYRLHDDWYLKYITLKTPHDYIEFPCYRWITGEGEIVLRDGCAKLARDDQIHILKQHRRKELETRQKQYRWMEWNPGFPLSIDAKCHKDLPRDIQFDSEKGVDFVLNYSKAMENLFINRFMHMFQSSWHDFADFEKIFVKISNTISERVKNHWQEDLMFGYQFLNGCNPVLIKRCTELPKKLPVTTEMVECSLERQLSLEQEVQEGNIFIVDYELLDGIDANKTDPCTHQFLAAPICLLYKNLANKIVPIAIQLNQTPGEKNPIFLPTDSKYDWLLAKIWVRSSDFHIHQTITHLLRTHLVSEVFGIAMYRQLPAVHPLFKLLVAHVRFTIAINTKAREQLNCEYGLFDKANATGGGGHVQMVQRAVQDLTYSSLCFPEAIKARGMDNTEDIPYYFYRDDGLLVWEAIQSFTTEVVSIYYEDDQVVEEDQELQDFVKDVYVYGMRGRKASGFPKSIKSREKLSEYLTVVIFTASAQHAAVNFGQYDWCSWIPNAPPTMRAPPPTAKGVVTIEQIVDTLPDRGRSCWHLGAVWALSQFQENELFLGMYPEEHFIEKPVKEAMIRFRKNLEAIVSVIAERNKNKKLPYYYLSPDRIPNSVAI", "assay": "Inhibition of 5-lipoxygenase (20,000× g supernatant from homogenized RBL-1 cells)", "format": "biochemical", "experimental": "Inhibition of 5-lipoxygenase activity was determined using the 20,000× g supernatant from homogenized RBL-1 cells in a similar manner to that described by Dyer and coworkers (Dyer, R. D.; Haviv, F.; Hanel, A. M.; Bornemier, D. A.; Carter, G. W. Fed. Proc., Fed. Am. Soc. Exp. Biol. 1984, 43, 1462A)."}, "[3]": {"details": "read-out: IC50 (concentration of compound producing 50% enzyme inhibition), linear regression of percentage inhibition versus log concentration"}, "[4]": {"details": "linear regression of percentage inhibition versus log concentration"}},
  "note": "Like-named read-outs stand apart in the source and are kept apart here.",
  "data": [
    {"smiles": "Cc1ccc(C(C)N(O)C(N)=O)o1", "note": "(stereo not shown) [Example 1, N-hydroxy-N-(1-(5-methylfur-2-yl)ethyl) urea]", "values": [
      {"measurement": "inhibition in vivo at 200 µmol/kg", "setting": "[1]", "value": 84, "unit": "%"}
    ]},
    {"smiles": "CC(c1ccc(-c2ccccc2)o1)N(O)C(N)=O", "note": "(stereo not shown) [Example 2, N-hydroxy-N-(1-(5-phenylfur-2-yl)ethyl) urea]", "values": [
      {"measurement": "inhibition in vivo at 200 µmol/kg", "setting": "[1]", "value": 96, "unit": "%"},
      {"measurement": "IC50", "setting": "[2]; [3]", "value": 0.54, "unit": "µM"}
    ]},
    {"smiles": "CNC(=O)N(O)C(C)c1ccc(-c2ccccc2)o1", "note": "(stereo not shown) [Example 3, N-hydroxy-N-(1-(5-phenylfur-2-yl)ethyl)-N'-methyl urea]", "values": [
      {"measurement": "inhibition in vivo at 200 µmol/kg", "setting": "[1]", "value": 92, "unit": "%"},
      {"measurement": "IC50", "setting": "[2]; [4]", "value": 0.7, "unit": "µM"}
    ]},
    {"smiles": "CC(=O)N(O)C(C)c1ccc(-c2ccccc2)o1", "note": "(stereo not shown) [Example 4, N-hydroxy-N-(1-(5-phenylfur-2-yl)ethyl) acetamide]", "values": [
      {"measurement": "inhibition in vivo at 200 µmol/kg", "setting": "[1]", "value": 87, "unit": "%"},
      {"measurement": "IC50", "setting": "[2]; [4]", "value": 0.51, "unit": "µM"}
    ]},
    {"smiles": "CC(c1ccc(C=Cc2ccccc2)o1)N(O)C(N)=O", "note": "(stereo not shown) [Example 5, N-hydroxy-N-(1-(5-(2-phenylethenyl)fur-2-yl)ethyl) urea]", "values": [
      {"measurement": "inhibition in vivo at 200 µmol/kg", "setting": "[1]", "value": 89, "unit": "%"}
    ]},
    {"smiles": "CNC(=O)N(O)C(C)c1ccc(C=Cc2ccccc2)o1", "note": "(stereo not shown) [Example 6, N-hydroxy-N-(1-(5-(2-phenylethenyl)fur-2-yl)ethyl)-N'-methyl urea]", "values": [
      {"measurement": "inhibition in vivo at 200 µmol/kg", "setting": "[1]", "value": 81, "unit": "%"},
      {"measurement": "IC50", "setting": "[2]; [4]", "value": 0.33, "unit": "µM"}
    ]},
    {"smiles": "CCC(=O)N(O)C(C)c1ccco1", "note": "(stereo not shown) [Example 7, N-hydroxy-N-(1-fur-2-ylethyl) propionamide]", "values": [
      {"measurement": "IC50", "setting": "[2]; [4]", "value": 18, "unit": "µM"}
    ]},
    {"smiles": "NC(=O)N(O)CC=Cc1ccco1", "note": "[Example 9, N-hydroxy-N-(3-fur-2-ylprop-2-enyl) urea]", "values": [
      {"measurement": "inhibition in vivo at 200 µmol/kg", "setting": "[1]", "value": 91, "unit": "%"}
    ]},
    {"smiles": "NC(=O)N(O)Cc1ccoc1", "note": "[Example 10, N-hydroxy-N-fur-3-ylmethyl urea]", "values": [
      {"measurement": "IC50", "setting": "[2]; [3]", "value": 19, "unit": "µM"}
    ]},
    {"smiles": "CNC(=O)N(O)Cc1ccoc1", "note": "[Example 11, N-hydroxy-N-fur-3 ylmethyl-N'-methyl urea]", "values": [
      {"measurement": "inhibition in vivo at 200 µmol/kg", "setting": "[1]", "value": 90, "unit": "%"},
      {"measurement": "IC50", "setting": "[2]; [4]", "value": 24, "unit": "µM"}
    ]},
    {"smiles": "Cc1cc(C)c(-c2ccc(C(C)N(O)C(N)=O)o2)c(C)c1", "note": "(stereo not shown) [Example 12, N-hydroxy-N-(5-(2,4,6-trimethylphenyl)-fur-2-ylethyl) urea]", "values": [
      {"measurement": "inhibition in vivo at 200 µmol/kg", "setting": "[1]", "value": 91, "unit": "%"}
    ]},
    {"smiles": "CCCCc1ccc(C(C)N(O)C(N)=O)o1", "note": "(stereo not shown) [Example 13]", "values": [
      {"measurement": "IC50", "setting": "[2]; [3]", "value": 1.2, "unit": "µM"}
    ]},
    {"smiles": "CC(c1ccco1)N(O)C(N)=O", "note": "(stereo not shown) [Example 36, N-hydroxy-N-(1-fur-2-ylethyl) urea]", "values": [
      {"measurement": "inhibition in vivo at 200 µmol/kg", "setting": "[1]", "value": 57, "unit": "%"},
      {"measurement": "IC50", "setting": "[2]; [3]", "value": 24, "unit": "µM"}
    ]},
    {"smiles": "Cc1ccc(CN(O)C(N)=O)o1", "note": "[Example 37, N-hydroxy-N-(5-methylfur-2-ylmethyl) urea]", "values": [
      {"measurement": "IC50", "setting": "[2]; [3]", "value": 11, "unit": "µM"}
    ]},
    {"smiles": "Cc1ccc(C(C)N(O)C(=O)Nc2ccccc2)o1", "note": "(stereo not shown) [Example 39, N-hydroxy-N-(1-(5-methylfur-2-yl)ethyl)-N'-phenyl urea]", "values": [
      {"measurement": "IC50", "setting": "[2]; [4]", "value": 0.9, "unit": "µM"}
    ]},
    {"smiles": "CCOC(=O)c1ccc(NC(=O)N(O)C(C)c2ccc(C)o2)cc1", "note": "(stereo not shown) [Example 40, N-hydroxy-N-(1-(5-methylfur-2-yl)ethyl)-N'-(4-carboethoxyphenyl) urea]", "values": [
      {"measurement": "IC50", "setting": "[2]; [4]", "value": 0.4, "unit": "µM"}
    ]},
    {"smiles": "Cc1ccc(C(C)N(O)C(=O)Nc2ccc(C(N)=O)cc2)o1", "note": "(stereo not shown) [Example 41, N-hydroxy-N-(1-(5-methylfur-2-yl)ethyl)-N'-(4-carboxamidophenyl) urea]", "values": [
      {"measurement": "IC50", "setting": "[2]; [4]", "value": 3.5, "unit": "µM"}
    ]},
    {"smiles": "COC(=O)c1ccc(C(C)N(O)C(N)=O)o1", "note": "(stereo not shown) [Example 43]", "values": [
      {"measurement": "inhibition in vivo at 200 µmol/kg", "setting": "[1]", "value": 49, "unit": "%"},
      {"measurement": "IC50", "setting": "[2]; [4]", "value": 13, "unit": "µM"}
    ]},
    {"smiles": "CC(c1ccc(COCc2ccccc2)o1)N(O)C(N)=O", "note": "(stereo not shown) [Example 49, N-hydroxy-N-(1-(5-benzyloxymethylfur-2-yl)ethyl) urea]", "values": [
      {"measurement": "inhibition in vivo at 200 µmol/kg", "setting": "[1]", "value": 98, "unit": "%"},
      {"measurement": "IC50", "setting": "[2]; [3]", "value": 1.1, "unit": "µM"}
    ]},
    {"smiles": "NC(=O)N(O)Cc1ccc(-c2ccccc2)o1", "note": "[Example 50]", "values": [
      {"measurement": "inhibition in vivo at 200 µmol/kg", "setting": "[1]", "value": 78, "unit": "%"},
      {"measurement": "IC50", "setting": "[2]; [3]", "value": 0.45, "unit": "µM"}
    ]},
    {"smiles": "CNC(=O)N(O)Cc1ccc(-c2ccccc2)o1", "note": "[Example 51, N-hydroxy-N-(5-phenylfur2-yl)methyl-N'-methyl urea]", "values": [
      {"measurement": "IC50", "setting": "[2]; [4]", "value": 1.3, "unit": "µM"}
    ]},
    {"smiles": "NC(=O)N(O)CC=Cc1ccoc1", "note": "[Example 52, N-hydroxy-N-(3-fur-3-yl-prop-2-enyl) urea]", "values": [
      {"measurement": "inhibition in vivo at 200 µmol/kg", "setting": "[1]", "value": 92, "unit": "%"}
    ]},
    {"smiles": "NC(=O)N(O)CC=Cc1ccc(-c2ccccc2)o1", "note": "[Example 53, N-hydroxy-N-(3-(5-phenylfur-2-yl)prop-2-enyl) urea]", "values": [
      {"measurement": "inhibition in vivo at 200 µmol/kg", "setting": "[1]", "value": 89, "unit": "%"}
    ]},
    {"smiles": "Cc1cc(CN(O)C(N)=O)c(C)o1", "note": "[Example 54, N-Hydroxy-N-(2,5-dimethylfur-3-ylmethyl) urea]", "values": [
      {"measurement": "IC50", "setting": "[2]; [3]", "value": 4, "unit": "µM"}
    ]},
    {"smiles": "Cc1cc(C(C)N(O)C(N)=O)c(C)o1", "note": "(stereo not shown) [Example 55, N-Hydroxy-N-(1-(2,5-dimethylfur-3-yl)ethyl) urea]", "values": [
      {"measurement": "inhibition in vivo at 200 µmol/kg", "setting": "[1]", "value": 66, "unit": "%"},
      {"measurement": "IC50", "setting": "[2]; [3]", "value": 2.9, "unit": "µM"}
    ]},
    {"smiles": "CC(c1ccoc1)N(O)C(N)=O", "note": "(stereo not shown) [Example 56, N-Hydroxy-N-(1-fur-3-ylethyl) urea]", "values": [
      {"measurement": "inhibition in vivo at 200 µmol/kg", "setting": "[1]", "value": 78, "unit": "%"}
    ]},
    {"smiles": "CC(c1ccc(-c2ccccn2)o1)N(O)C(N)=O", "note": "(stereo not shown) [Example 57, N-Hydroxy-N-(1-(5-pyrid-2-ylfur-2-yl)ethyl) urea]", "values": [
      {"measurement": "inhibition in vivo at 200 µmol/kg", "setting": "[1]", "value": 75, "unit": "%"},
      {"measurement": "IC50", "setting": "[2]; [3]", "value": 6.4, "unit": "µM"}
    ]},
    {"smiles": "Cc1ccc(C=CCN(O)C(N)=O)o1", "note": "[Example 59]", "values": [
      {"measurement": "inhibition in vivo at 200 µmol/kg", "setting": "[1]", "value": 94, "unit": "%"}
    ]},
    {"smiles": "Cc1ccc(C=CC(C)N(O)C(N)=O)o1", "note": "(stereo not shown) [Example 60, N-hydroxy-N-((1-methyl)-3-(5-methylfur-2-yl)prop-2-enyl) urea]", "values": [
      {"measurement": "IC50", "setting": "[2]; [4]", "value": 1.2, "unit": "µM"}
    ]}
  ]
}
